In patent EP1311531B1, “STEROID DERIVED ANTIBIOTICS” (Brigham Young University, priority 2000, dated 2002):
≈ marks a conversion by molar mass, not a printed value. Like-named read-outs stand apart in the source and are kept apart here.

Legend:
[1] = system: Escherichia coli ATCC 25922; experiment: Sensitization to erythromycin, novobiocin or rifampicin (permeabilization, FIC); conditions: for c: concentration of the compounds required to lower the MIC of erythromycin from 30 to 1 µg/mL: Table 16, with E. coli
Protocol: FICs can be performed by checkerboard titrations of compounds in one dimension of a microtiter plate, and of antibiotics in the other dimension, for example. The FIC is calculated by looking at the impact of one antibiotic on the MIC of the other and vice versa. […] As used herein, FIC can be determined as follows: FIC = (MIC(compound in combination))/(MIC(compound alone)) + (MIC(antibiotic in combination))/(MIC(antibiotic alone)) [formula]

[2] = system: E. coli (ATCC 10798); experiment: MIC and MBC measurement; type: cell-based, Escherichia coli; conditions: Escherichia coli, ATCC10798, E. coli (ATCC 10798); for MIC: read-out: MIC
Protocol: (§1) General: Microorganisms. Reference strains were purchased from the American Type Culture Collection (Rockville, MD) or Bactrol disks from Difeo Laboratories (Detroit, MI). […] Bacterial strains were maintained on Mueller-Hinton agar plates, and Candida albicans was maintained on Sabouraud Dextrose agar plates.
(§2) Aliquots (20 mL) of the homogeneous solution were then poured in sterile plastic petri dishes (100 x 15 mm, Fisher Scientific). Solutions of compounds were made by dissolving the HCl salt of the respective compound into an appropriate amount of deionized and sterilized water followed by microfiltration.
(§3) Aliquots of 1 mL of the suspension were added to test tubes containing 1 mL TSB and incrementally varied concentrations of cholic acid derivatives and/or erythromycin or novobiocin. […] Additionally, an alliquot from each of the samples showing no measurable turbidity was subcultured on TSA plates (alliquots were diluted to provide fewer than 300 CFU). Colonies that grew on the subculture after overnight incubation were counted and the number of CFU/mL in the samples were calculated. The calculated values were compared to the number of CFU/mL in the original inoculum.

[3] = system: E. coli (ATCC 10798); experiment: Sensitization to erythromycin or novobiocin (outer membrane permeabilization, FIC); type: cell-based, Escherichia coli; conditions: E. coli (ATCC 10798); for MBC: Escherichia coli
Protocol: (§4) FICs can be performed by checkerboard titrations of compounds in one dimension of a microtiter plate, and of antibiotics in the other dimension, for example. The FIC is calculated by looking at the impact of one antibiotic on the MIC of the other and vice versa. […] Preferably, an FIC of less than 0.5 is obtained for synergism. As used herein, FIC can be determined as follows: FIC = (MIC(compound in combination))/(MIC(compound alone)) + (MIC(antibiotic in combination))/(MIC(antibiotic alone)) [formula]
(§5) Aliquots of 1 mL of the suspension were added to test tubes containing 1 mL TSB and incrementally varied concentrations of cholic acid derivatives and/or erythromycin or novobiocin. In the sensitization experiments, erythromycin or novobiocin were added 15 minutes later than the cholic acid derivatives. The samples were subjected to stationary incubation at 37°C for 24 hours. Sample turbidity was determined by measuring absorption at 760 nm (HP 8453 UV-Visible Chemstation, Hewlett Packard). Additionally, an alliquot from each of the samples showing no measurable turbidity was subcultured on TSA plates (alliquots were diluted to provide fewer than 300 CFU). Colonies that grew on the subculture after overnight incubation were counted and the number of CFU/mL in the samples were calculated. The calculated values were compared to the number of CFU/mL in the original inoculum.
They were also tested for the ability to permeabilize the outer membrane of Gram-negative bacteria, causing sensitization to hydrophobic antibiotics that cannot cross the outer membrane. The permeabilization of the outer membrane was measured using erythromycin and novobiocin.

[4] = system: Escherichia coli ATCC 25922; experiment: MIC and MBC measurement; type: cell-based
Description: (§6) General: Microorganisms. Reference strains were purchased from the American Type Culture Collection (Rockville, MD) or Bactrol disks from Difeo Laboratories (Detroit, MI). The following specific ATCC strains were used: 10798 Escherichia coli, 25922 Escherichia coli, 13883 Klebsiella pneumoniae, 27853 Pseudomonas aeruginosa, 14028 Salmonella typhimurium, 29212 Enterococcus faecalis, 25923 Staphylococcus aureus, 19615 Streptococcus pyogenes, and 90028 Candida albicans. Bacterial strains were maintained on Mueller-Hinton agar plates, and Candida albicans was maintained on Sabouraud Dextrose agar plates.
(§7) Tryptic soy broth (TSB) was made by dissolving 27.5 grams of tryptic soy broth without dextrose (DIFCO Laboratories) in 1 liter of deionized water and sterilizing at 121 °C for 15 minutes. Solid agar (TSA) plates were made by dissolving 6.4 grams of tryptic soy broth and 12 grams of agar (purified grade, Fischer Scientific) in 800 mL of deionized water and sterilizing at 121 °C for 20 minutes. Aliquots (20 mL) of the homogeneous solution were then poured in sterile plastic petri dishes (100 x 15 mm, Fisher Scientific). Solutions of compounds were made by dissolving the HCl salt of the respective compound into an appropriate amount of deionized and sterilized water followed by microfiltration.
as §5, with “inoculum. […]” for “inoculum.”

[5] = system: Pseudomonas aeruginosa ATCC 27853; experiment: MIC and MBC measurement; type: cell-based
Protocol: as §1, §2, §3

[6] = system: Pseudomonas aeruginosa ATCC 27853; experiment: Sensitization to erythromycin, novobiocin or rifampicin (permeabilization, FIC); type: cell-based; conditions: P. aureginosa (ATCC 27853)
Protocol: as §4, §5
Concentrations of 0.5, 1.0 or 3.0 µg/mL of these antibiotics were used, and the concentrations of the cholic acid derivatives required to inhibit bacterial growth of Gram-negative strains were determined.

[7] = Minimum hemolytic concentration (MHC); type: cell-based; conditions: Table 16
Protocol: Minimum inhibition concentrations (MIC) and minimum hemolytic concentrations (MHC) were measured as described in Li et al., Antimicrob. Agents. Chemother., 1999, 43, 1347. […]

[8] = system: Staphylococcus aureus ATCC 25923; experiment: MIC and MBC measurement; type: cell-based; conditions: Table 16 (MIC^a), S. aureus (ATTC 25923)
Description: as §6, §7
as §5, with “inoculum. […]” for “inoculum.”

[9] = Stability (half-lives) in phosphate buffer, decomposition observed via HPLC; type: physicochemical; conditions: 50 mM phosphate buffer, room temperature; for stabilities (half-lives) pH 2.0: pH 2.0, approximately 10 mM; for stabilities (half-lives) pH 7.0: pH 7.0, approximately 10 mM; for stabilities (half-lives) pH 12.0: pH 12.0, approximately 10 mM
Protocol: Compounds 352 - 354 were dissolved in 50 mM phosphate buffered water (pH 2.0, 7.0 or 12.0) at approximately 10 mM concentrations. […] These compounds were used since they contain a chromophore that facilitated monitoring of decomposition by absorption methods common in the HPLC apparatus used.

[10] = ATCC27853, Table 6, P. aureginosa (ATCC 27853)
[11] = Escherichia coli, ATCC25922, Table 16 (MIC^b), E. coli (ATTC 25922), read-out: MIC
[12] = Staphylococcus aureus, ATCC25923, read-out: MIC

## C[C@H](CCCN(C)Cc1ccccc1)[C@H]1CC[C@H]2[C@@H]3[C@H](OCCNC(=N)N)C[C@@H]4C[C@H](OCCNC(=N)N)CC[C@]4(C)[C@H]3C[C@H](OCCNC(=N)N)[C@]12C [Compound 4]
[1]; Escherichia coli, ATCC25922
  MBC: 5 µg/mL
[1]; Table 5, E. coli (ATCC 25922), with erythromycin
  concentration required to lower the MIC of erythromycin from 60 µg/mL to 1 µg/mL: 1 µg/mL
[2]; Table 1, read-out: MBC
  MBC: 10 µg/mL (≈ 13.3 µM)
[2]; Table 1
  MIC: 5 µg/mL (≈ 6.64 µM)
[3]; ATCC10798, Table 2, with erythromycin
  MBC: 10 µg/mL
[3]; ATCC10798, Table 3, with novobiocin
  MBC: 10 µg/mL
[3]; Table 2, with erythromycin
  concentration required to lower the MIC of erythromycin from 70 µg/mL to 1 µg/mL: 1.5 µg/mL
[4]; Escherichia coli, ATCC25922, Table 4, E. coli (ATCC 25922)
  MBC: 9 µg/mL (≈ 12 µM)
[4]; Escherichia coli, ATCC25922, Table 4, E. coli (ATCC 25922), read-out: MIC
  MIC: 6 µg/mL (≈ 7.97 µM)
[5]; [10]
  MBC: 40 µg/mL (≈ 53.1 µM)
  MIC: 15 µg/mL (≈ 19.9 µM)
[6]; Pseudomonas aeruginosa, ATCC27853, Table 7, with erythromycin
  MBC: 40 µg/mL
[6]; Table 7, with erythromycin
  concentration required to lower the MIC of erythromycin from 240 µg/mL to 5 µg/mL: 5 µg/mL
[6]; Table 8, with novobiocin
  concentration required to lower the MIC of novobiocin from >500 µg/mL to 1 µg/mL: 6 µg/mL

## C[C@H](CCC(=O)OCC[N+](C)(C)C)[C@H]1CC[C@H]2[C@@H]3[C@H](OC(=O)CN)C[C@@H]4C[C@H](OC(=O)CN)CC[C@]4(C)[C@H]3C[C@H](OC(=O)CN)[C@]12C [Compound 324]
[7]
  MHC: >200 µg/mL
[1]
  c: concentration of the compounds required to lower the MIC of erythromycin from 30 to 1 µg/mL: 10 µg/mL
[4]; [11]
  MIC: 60 µg/mL
[8]; [12]
  MIC: 15 µg/mL

## C[C@H](CCC(=O)OCC[N+](C)(C)C)[C@H]1CC[C@H]2[C@@H]3[C@H](OC(=O)CCN)C[C@@H]4C[C@H](OC(=O)CCN)CC[C@]4(C)[C@H]3C[C@H](OC(=O)CCN)[C@]12C [Compound 325]
[7]
  MHC: >200 µg/mL
[1]
  c: concentration of the compounds required to lower the MIC of erythromycin from 30 to 1 µg/mL: 2.0 µg/mL
[4]; [11]
  MIC: 30 µg/mL
[8]; [12]
  MIC: 11 µg/mL

## C[C@H](CCC(=O)OCC[N+](C)(C)C)[C@H]1CC[C@H]2[C@@H]3[C@H](OC(=O)CCCN)C[C@@H]4C[C@H](OC(=O)CCCN)CC[C@]4(C)[C@H]3C[C@H](OC(=O)CCCN)[C@]12C [Compound 326]
[7]
  MHC: >200 µg/mL
[1]
  c: concentration of the compounds required to lower the MIC of erythromycin from 30 to 1 µg/mL: 2.0 µg/mL
[4]; [11]
  MIC: 23 µg/mL
[8]; [12]
  MIC: 14 µg/mL

## C[C@H](CCC(=O)O)[C@H]1CC[C@H]2[C@@H]3[C@H](OC(=O)CN)C[C@@H]4C[C@H](OC(=O)CN)CC[C@]4(C)[C@H]3C[C@H](OC(=O)CN)[C@]12C [Compound 327]
[7]
  MHC: >100 µg/mL
[1]
  c: concentration of the compounds required to lower the MIC of erythromycin from 30 to 1 µg/mL: >100 µg/mL
[4]; Table 16, second MIC column (MIC^b), E. coli (ATTC 25922)
  MIC: >100 µg/mL
[8]
  MIC: >100 µg/mL

## CCCCCCCCOC(=O)CC[C@@H](C)[C@H]1CC[C@H]2[C@@H]3[C@H](OC(=O)CN)C[C@@H]4C[C@H](OC(=O)CN)CC[C@]4(C)[C@H]3C[C@H](OC(=O)CN)[C@]12C [Compound 341]
[7]
  MHC: 4.0 µg/mL
[1]
  c: concentration of the compounds required to lower the MIC of erythromycin from 30 to 1 µg/mL: 0.7 µg/mL
[4]; [11]
  MIC: 1 µg/mL (≈ 1.45 µM)
[8]; [12]
  MIC: 1.8 µg/mL (≈ 2.6 µM)

## CCCCCCCCOC(=O)CC[C@@H](C)[C@H]1CC[C@H]2[C@@H]3[C@H](OC(=O)CCCN)C[C@@H]4C[C@H](OC(=O)CCCN)CC[C@]4(C)[C@H]3C[C@H](OC(=O)CCCN)[C@]12C [Compound 343]
[7]
  MHC: <10 µg/mL
[1]
  c: concentration of the compounds required to lower the MIC of erythromycin from 30 to 1 µg/mL: 3.5 µg/mL
[4]; [11]
  MIC: 3.5 µg/mL (≈ 4.51 µM)
[8]; [12]
  MIC: 1.2 µg/mL (≈ 1.55 µM)

## C[C@H](CCCN(C)Cc1ccccc1)[C@H]1CC[C@H]2[C@@H]3[C@H](OC(=O)CN)C[C@@H]4C[C@H](OC(=O)CN)CC[C@]4(C)[C@H]3C[C@H](OC(=O)CN)[C@]12C [Compound 352]
[9]
  stabilities (half-lives) pH 2.0: >37 days
  stabilities (half-lives) pH 7.0: 28 days
  stabilities (half-lives) pH 12.0: <30 minutes

## C[C@H](CCCN(C)Cc1ccccc1)[C@H]1CC[C@H]2[C@@H]3[C@H](OC(=O)CCN)C[C@@H]4C[C@H](OC(=O)CCN)CC[C@]4(C)[C@H]3C[C@H](OC(=O)CCN)[C@]12C [Compound 353]
[9]
  stabilities (half-lives) pH 2.0: >37 days
  stabilities (half-lives) pH 7.0: 37 days
  stabilities (half-lives) pH 12.0: <30 minutes

## CC[C@H]1OC(=O)[C@H](C)[C@@H](O[C@H]2C[C@@](C)(OC)[C@@H](O)[C@H](C)O2)[C@H](C)[C@@H](O[C@@H]2O[C@H](C)C[C@H](N(C)C)[C@H]2O)[C@](C)(O)C[C@@H](C)C(=O)[C@H](C)[C@@H](O)[C@]1(C)O [erythromycin, reference compound]
[2]; antibiotic alone
  MIC: 70 µg/mL (≈ 95.4 µM)
[4]; Escherichia coli, ATCC25922, antibiotic alone, E. coli (ATCC 25922), read-out: MIC
  MIC: 30 µg/mL (≈ 40.9 µM)
[5]; ATCC27853, antibiotic alone, P. aureginosa (ATCC 27853)
  MIC: 240 µg/mL (≈ 327 µM)
